Data from patent US20260232753A1, “COMPOSITION FOR TREATING MACULAR DEGENERATION COMPRISING NOVEL PEPTIDE” (EYEBIOKOREA, INC., priority 2021, published 2026).
*1 amine or outer side, *2 acyl side, *3 side chain or, on linkers, in order; H or OH if unused. Where no end group is shown, it is not given here. [ ]: non-standard residue; d: D form. The star is where a group is joined. Pro(trans-4-NH2) = O=C([C@@H]1C[C@@H](N[*:3])CN1[*:1])[*:2]; Pro(4-methylene) = C=C1CN[C@H](C(=O)O)C1; Pro(cis-4-F) = O=C(O)[C@@H]1C[C@H](F)CN1; Pro(4,4-F2) = O=C(O)[C@@H]1CC(F)(F)CN1; Pro(4,4-Me2) = CC1(C)CN[C@H](C(=O)O)C1; Hyp = O=C(O)[C@@H]1C[C@@H](O)CN1; dHyp = O=C(O)[C@H]1C[C@H](O)CN1; OiPr = CC(C)O*

What was measured:
[1] = system: choroidal neovascularization (CNV); assay: Inhibition of choroidal neovascularization: optical coherence tomography, size of CNV lesion, intravitreal injection; assay type: in vivo, C57BL/6 mice; details: laser-induced CNV; 1 μL intravitreal, peptide 10 mg/mL or aflibercept 20 mg/mL; ten days after administration; OCT
Source text: (§1) The CNV animal model used in the present invention is a mouse model in which lesions are induced by irradiating a laser to the choroid of C57BL/6 mice using a laser slit system. The laser-induced CNV model, first described in 1979, uses photocoagulation to disturb Bruch's membrane to induce the growth of choroidal neovascularization into the retina area, and it is similar in development to neovascular disease in the human retina, that is, wet macular degeneration (wet AMD), in that neovascularity arises from the choroid. In addition, the laser-induced CNV model was successful in predicting the clinical efficacy of anti-vascular endothelial growth factor (VEGF) treatment for neovascular AMD, and is an animal model used in the development stage of existing therapeutic agents (Gong Y, Li J, Sun Y, Fu Z, Liu C H, Evans L, et al. (2015) Optimization of an Image-Guided Laser-Induced Choroidal Neovascularization Model in Mice. PLOS ONE 10 (7)).
(§2) In order to evaluate the efficacy of the peptide of the present invention to inhibit the choroidal neovascularization (CNV), an experiment was performed as follows.
The eyes of 7-8 week old C57BL/6 mice were instilled with a mydriatic agent to dilate the pupils, and the mice were anesthetized by intraperitoneal injection of ketamine (50 mg/kg) and rompun (23.32 mg/kg). A slit-lamp laser injection system was used to irradiate the laser to the choroid of each eye of the mouse four times in the 12 o'clock, 3 o'clock, 6 o'clock, and 9 o'clock directions. At this time, the laser irradiation conditions were 532 nm, 80 msec, and 240 mW. Immediately after laser irradiation, 1 μL of each peptide at a concentration of 10 mg/mL or aflibercept at a concentration of 20 mg/mL, which was dissolved in PBS, was injected into the vitreous body using a syringe. Ten days after drug administration, the mice were anesthetized, and the CNV lesions induced by laser were calculated and expressed as μm^2 using the ImageJ program by transmitting an OCT beam for each burn. The results of all tests are expressed as mean±standard deviation, and significance was verified using one-way ANOVA and Kruskal-wallis test.

[2] = system: choroidal neovascularization (CNV); assay: Inhibition of choroidal neovascularization: fluorescence value (CTF) at the CNV site by FFA, laser-induced CNV model, intravitreal injection; assay type: in vivo, C57BL/6 mice; details: ten days after administration; for CNV inhibitory efficacy from fluorescence value of the CNV site (in words): intravitreal; for CTF (corrected total fluorescence) value: laser-induced CNV, 1 μL intravitreal, peptide 10 mg/mL or aflibercept 20 mg/mL, lower CTF = less CNV
Source text: as §1, §2
The eyes of 7-8 week old C57BL/6 mice were instilled with a mydriatic agent to dilate the pupils, and the mice were anesthetized by intraperitoneal injection of ketamine (50 mg/kg) and rompun (23.32 mg/kg). A slit-lamp laser injection system was used to irradiate the laser to the choroid of each eye of the mouse four times in the 12 o'clock, 3 o'clock, 6 o'clock, and 9 o'clock directions. At this time, the laser irradiation conditions were 532 nm, 80 msec, and 240 mW. Immediately after laser irradiation, 1 μL of each peptide at a concentration of 10 mg/mL or aflibercept at a concentration of 20 mg/mL, which was dissolved in PBS, was injected into the vitreous body using a syringe. Ten days after drug administration, the mice were anesthetized, and 2% fluorescein was administered to the abdominal cavity to stain blood vessels. The retina was photographed 2 to 3 minutes after fluorescein administration. The size and fluorescence value of CNV lesions induced by laser were measured using the ImageJ program, and in order to reduce the differences between subjects, the CTF (corrected total fluorescence) was calculated by removing the background, and the values of each group were compared. The results of all tests are expressed as mean±standard deviation, and significance was verified using one-way ANOVA and Kruskal-wallis test.

Row | Substance | Size of lesion [1] | CNV inhibitory efficacy from fluorescence value of the CNV site (in words) [2] | CTF (corrected total fluorescence) value [2]
1 | Hyp-Gly-Gln-Asp-Leu-Leu-Ala ([Hyp]GQDLLA) [Example 15] | 6,672 μm^2 | very excellent inhibitory efficacy | ++ (++: 200,000 to 300,000)
2 | cis-4F-Pro-Gly-Gln-Asp-Gly ([Pro(cis-4-F)]GQDG) [Example 22] | – | – | + (+: 300,000 to 800,000)
3 | Hyp-Gly-Gln-Asp-Gly-D-Leu-Ala ([Hyp]GQDG[dL]A) [Example 20] | – | – | + (+: 300,000 to 800,000)
4 | Hyp-Gly-Gln-Asp-Val ([Hyp]GQDV) [Example 1] | 5,636 μm^2 | very excellent inhibitory efficacy | +++ (+++: 100,000 to 200,000)
5 | 4-methylene-Pro-Gly-Gln-Asp-Gly-Leu ([Pro(4-methylene)]GQDGL) [Example 30] | – | – | + (+: 300,000 to 800,000)
6 | [Hyp]G[dQ]DGL [Example 10] | – | – | + (+: 300,000 to 800,000)
7 | 4,4-difluoro-Pro-Gly-Gln-Asp-Gly ([Pro(4,4-F2)]GQDG) [Example 24] | – | – | + (+: 300,000 to 800,000)
8 | [Hyp]GQ[dD]G [Example 5] | – | – | + (+: 300,000 to 800,000)
9 | Hyp-Gly-Gln-Glu-Gly ([Hyp]GQEG) [Example 36] | – | – | + (+: 300,000 to 800,000)
10 | D-Hyp-Gly-Gln-Asp-Gly-Leu ([dHyp]GQDGL) [Example 13] | 6,395 μm^2 | very excellent inhibitory efficacy | ++ (++: 200,000 to 300,000)
11 | [Hyp]G[dQ]DG [Example 4] | – | – | + (+: 300,000 to 800,000)
12 | 4,4-difluoro-Pro-Gly-Gln-Asp-Gly-Leu ([Pro(4,4-F2)]GQDGL) [Example 29] | – | – | + (+: 300,000 to 800,000)
13 | cis-4F-Pro-Gly-Gln-Asp-Gly-Leu ([Pro(cis-4-F)]GQDGL) [Example 27] | – | very excellent inhibitory efficacy | +++ (+++: 100,000 to 200,000)
14 | 4,4-dimethyl Pro-Gly-Gln-Asp-Gly ([Pro(4,4-Me2)]GQDG) [Example 26] | – | – | + (+: 300,000 to 800,000)
15 | D-Hyp-Gly-Gln-Asp-Gly-Leu-Ala ([dHyp]GQDGLA) [Example 32] | – | – | + (+: 300,000 to 800,000)
16 | Hyp-Gly-Gln-Glu-Val-Leu ([Hyp]GQEVL) [Example 39] | – | – | + (+: 300,000 to 800,000)
17 | trans-4NH2-Pro-Gly-Gln-Asp-Gly-Leu ([Pro(trans-4-NH2)]GQDGL) [Example 28] | – | – | + (+: 300,000 to 800,000)
18 | trans-4NH2-Pro-Gly-Gln-Asp-Gly ([Pro(trans-4-NH2)]GQDG) [Example 23] | – | very excellent inhibitory efficacy | ++ (++: 200,000 to 300,000)
19 | cis-4F-Pro-Gly-Gln-Asp-Gly-Leu-Ala ([Pro(cis-4-F)]GQDGLA) [Example 33] | – | – | + (+: 300,000 to 800,000)

Row | Substance | Size of lesion [1] | CNV inhibitory efficacy from fluorescence value of the CNV site (in words) [2] | CTF (corrected total fluorescence) value [2]
20 | Hyp-Gly-Gln-D-Asp-Gly-Leu ([Hyp]GQ[dD]GL) [Example 11] | – | – | + (+: 300,000 to 800,000)
21 | [dHyp]GQDG [Example 6] | – | – | + (+: 300,000 to 800,000)
22 | 4-methylene-Pro-Gly-Gln-Asp-Gly ([Pro(4-methylene)]GQDG) [Example 25] | – | – | + (+: 300,000 to 800,000)
23 | Hyp-Gly-Gln-Asp-Val-Leu-Ala ([Hyp]GQDVLA) [Example 14] | 5,407 μm^2 | very excellent inhibitory efficacy | ++ (++: 200,000 to 300,000)
24 | Hyp-Gly-Gln-Asp-Ala ([Hyp]GQDA) [Example 3] | 6,491 μm^2 | – | + (+: 300,000 to 800,000)
25 | Hyp-Gly-Gln-Asp-Leu-Leu ([Hyp]GQDLL) [Example 8] | – | very excellent inhibitory efficacy | ++ (++: 200,000 to 300,000)
26 | Hyp-Gly-Gln-Asp-Leu ([Hyp]GQDL) [Example 2] | – | – | + (+: 300,000 to 800,000)
27 | Hyp-Gly-Gln-Glu-Leu-Leu ([Hyp]GQELL) [Example 38] | – | – | + (+: 300,000 to 800,000)
28 | 4,4-dimethyl Pro-Gly-Gln-Asp-Gly-Leu-Ala ([Pro(4,4-Me2)]GQDGLA; also: X1: 4,4-dimethyl-Pro (name) or 4-methylene-L-proline) [Example 35] | – | – | + (+: 300,000 to 800,000)
29 | Hyp-Gly-Gln-Asp-Ala-Leu-Ala ([Hyp]GQDALA) [Example 16] | – | – | + (+: 300,000 to 800,000)
30 | Hyp-Gly-Gln-Asp-Gly-Leu-D-Ala ([Hyp]GQDGL[dA]) [Example 21] | – | – | + (+: 300,000 to 800,000)
31 | Hyp-Gly-Gln-Asp-Gly-Leu-Ala-IPE ([Hyp]GQDGLA-OiPr) [Example 17] | 5,978 μm^2 | very excellent inhibitory efficacy | ++ (++: 200,000 to 300,000)
32 | Hyp-Gly-Gln-Asp-Val-Leu ([Hyp]GQDVL) [Example 7] | 6,046 μm^2 | very excellent inhibitory efficacy | ++ (++: 200,000 to 300,000)
33 | [Hyp]GQ[dD]GLA [Example 19] | – | – | + (+: 300,000 to 800,000)
34 | [Hyp]G[dQ]DGLA [Example 18] | – | – | + (+: 300,000 to 800,000)
35 | Hyp-Gly-Gln-Asp-Ala-Leu ([Hyp]GQDAL) [Example 9] | – | very excellent inhibitory efficacy | ++ (++: 200,000 to 300,000)
36 | Hyp-Gly-Gln-Asp-Gly-D-Leu ([Hyp]GQDG[dL]) [Example 12] | – | – | + (+: 300,000 to 800,000)
37 | 4-methylene-Pro-Gly-Gln-Asp-Gly-Leu-Ala ([Pro(4-methylene)]GQDGLA) [Example 34] | 8,603 μm^2 | – | + (+: 300,000 to 800,000)
38 | 4,4-dimethyl Pro-Gly-Gln-Asp-Gly-Leu ([Pro(4,4-Me2)]GQDGL) [Example 31] | – | – | + (+: 300,000 to 800,000)
